Measured values as given in patent publication US20240408071A1, “NOVEL COMBINATION OF SEROTONIN RECEPTOR (5-HTR2B) ANTAGONIST AND AN IMMUNOMODULATOR AND CHEMOTHERAPEUTIC DRUGS FOR INHIBITION OF CANCER” (NATIONAL CENTRE FOR CELL SCIENCE, priority 2021, published 2024).

Columns and labels:
[1] = system: MC38 cells; experiment: MTT cell viability assay; type: cell-based, mouse; details: graded dose; reduced serum media; 48 hours of stimulation
Protocol: FIG. 6 depicts that 5-HTR2B signalling in colon cancer affects cell proliferation and viability: Colon cancer MC38 cells were treated with serotonin (100 μM), 5-HTR2B agonist (BW-723C86; 50 μM), or 5-HTR2B antagonist (SB-215505; 50 μM) for 48 hours, and cell cycle analysis was performed by propidium iodide staining using flow cytometry. MC38 cells were also treated with a graded dose of 5-HTR2B agonist (BW-723C86) or serotonin. MTT assay was performed to measure cell viability. (A) After treatment with 5-HTR2B agonist BW-723C86, serotonin, or 5-HTR2B antagonist SB-215505, the relative cell cycle analysis is shown. (B) Relative cell viability data of MC38 cells following treatment of graded doses of 5-HTR2B agonist BW-723C86 or serotonin are shown. The data shown are representative of one of the three independent experiments. (C) MC38 tumor sections from the control tumor and 5-HTR2B antagonist treated tumor were stained for CD31 and the number of CD31^+ micro-blood vessels/mm^2 of tissue sections was counted and plotted to observe angiogenesis. Error bar represents ±standard error of the mean (SEM).
MC38 cells were cultured at a density of 0.5×10^4 cells/well in 96 well plates (flat bottom) and were allowed to adhere for 24 hours. […] Then, MTT crystals were dissolved with DMSO, and the reading was taken at 590 nm in an ELISA reader (Thermofisher). […]

[2] = system: PD-L1; experiment: PD-L1 expression on MC38 cells in vitro (flow cytometry, mRNA); type: cell-based, mouse; details: BW-723C86 50 μM, serotonin 100 μM, RS-127445 50 μM, 72 hours (mRNA 48 hours) (FIG. 13A-E)
Protocol: FIG. 13 depicts 5-HTR2B signaling promotes PD-L1 expression on the MC38 cell line in vitro: (A-B) MC38 cells are treated with 5-HTR2B agonist (BW-723C86-50 μM), serotonin (100 μM), and 5-HTR2B antagonist (RS-127445-50 μM) for 72 hours, and the PD-L1 expression was checked by flow cytometry and the percentage of PD-L1^+ MC38 cells was plotted. (C-D) MFI of PD-L1 from the above experiment were plotted as histogram overlay (C) or as statistical data points (D). (E) Relative PD-L1 mRNA expression in MC38 cells following BW-723C86 and RS-127445 treatment for 48 hours. Here the values are shown as a fold change as compared to control MC38 cells. (F) Serum PD-L1 level was measured by ELISA of naïve C57BL/6J mice, control MC38 tumor-bearing mice, BW-723C86 (5 mg/kg/day) treated MC38 tumor-bearing mice and RS-127445 (5 mg/kg/day) treated MC38 tumor-bearing mice after 14 days of tumor inoculation. All the statistical analysis was performed using either Student's ‘t’ test or two-way ANOVA using Sidak's multiple comparison test. *P<0.05; **P<0.01; […]; ****P<0.0001 Error bar represents mean±standard error of means (SEM).
To understand it, investigations were done on whether 5-HTR2B signaling also affects the surface expression of molecules that alters inflammatory and cytotoxic immune cells. Among different molecules, PD-L1 is of particular interest as it is an immune checkpoint ligand that affects cytotoxic T-cell responses toward cancer. […] (FIG. 13F).

[3] = system: MC38 colon cancer cells; experiment: MC38 colon tumor growth (tumor volume) in C57BL/6 mice; type: in vivo
Protocol: Tumor volumes were measured and plotted. (B) MC38 colon cancer cells were injected subcutaneously into the right flank of C57BL/6 mice. After seven days when tumors became palpable, one group was treated with 5-HTR7 antagonist SB-269970 (n=6 mice; 3 mg/kg/day) or left untreated (n=6 mice). Tumor volume was measured and plotted. (C) After seven days of the setting of tumor growth, one group was treated with a serotonin transporter blocker (SSRI) sertraline hydrochloride (n=6 mice; 15 mg/kg/week) or left untreated (n=6 mice). Tumor volume was measured and plotted. (D) C57BL/6 mice were given subcutaneously injected MC38 cells. After seven days of tumor growth, one group of mice was treated with different doses of 5-HTR2B antagonist SB-215505 (n=6). Tumor volume was measured and plotted. (E) C57BL/6 mice were given subcutaneously injected MC38 cells. After seven days of the tumor growth, one group of mice was treated with different doses of 5-HTR2B antagonist SB-215505 (n=6), one group treated with 5-HTR2B agonist BW-723C86 (n=6; 4 mg/kg/day). Tumor volume was measured and plotted. (F) MC38 cells were subcutaneously injected into C57BL/6 mice. After seven days when the tumor became palpable in mice, one group of mice was treated with FDA-approved 5-HTR2B antagonist cariprazine (Carispec; Sun pharma) via oral gavage (n=5 mice; dose 5 mg/kg body weight/day) or left untreated (n=5 mice). Tumor growth was measured and plotted. […] All the statistical analysis was performed using Student's ‘t’ test or two-way ANOVA using Sidak's multiple comparison test. *P<0.05; **P<0.01; ***P<0.00; ****P<0.0001 Error bar represents mean±standard error of means (SEM).

[4] = system: 4T1-Luc2 cells; experiment: 4T1-Luc2 breast cancer model, tumor volume; type: in vivo, BALB/c mice; details: SB-215505 vs untreated, from day 7 (FIG. 7G)
Protocol: FIG. 7 depicts that antagonizing the 5-HTR2B in mice inhibits breast and colon tumor growth: (A) MC38 colon cancer cells were injected subcutaneously into the right flank of C57BL/6 mice. […] Tumor volumes were measured and plotted. (B) MC38 colon cancer cells were injected subcutaneously into the right flank of C57BL/6 mice. After seven days when tumors became palpable, one group was treated with 5-HTR7 antagonist SB-269970 (n=6 mice; 3 mg/kg/day) or left untreated (n=6 mice). Tumor volume was measured and plotted. (C) After seven days of the setting of tumor growth, one group was treated with a serotonin transporter blocker (SSRI) sertraline hydrochloride (n=6 mice; 15 mg/kg/week) or left untreated (n=6 mice). Tumor volume was measured and plotted. (D) C57BL/6 mice were given subcutaneously injected MC38 cells. After seven days of tumor growth, one group of mice was treated with different doses of 5-HTR2B antagonist SB-215505 (n=6). Tumor volume was measured and plotted. […] Tumor volume was measured and plotted. […] Tumor growth was measured and plotted. […] Tumour volumes were measured and plotted. […] Tumour volumes were measured and plotted. […]
FIG. 16 depicts the effect of the 5-HTR2B antagonist on the FDA-approved chemotherapy drug treatment: (A) BALB/C mice were inoculated with 4T1-Luc2 cells in the mammary fat pad. […] Tumor volume was measured and plotted. […]

[5] = system: B16F10 cells; experiment: B16F10 melanoma model, tumor volume; type: in vivo, C57BL/6J mice; details: SB-215505 vs untreated, from day 7 (FIG. 7H)
Protocol: FIG. 7 depicts that antagonizing the 5-HTR2B in mice inhibits breast and colon tumor growth: (A) MC38 colon cancer cells were injected subcutaneously into the right flank of C57BL/6 mice. […] Tumor volumes were measured and plotted. (B) MC38 colon cancer cells were injected subcutaneously into the right flank of C57BL/6 mice. After seven days when tumors became palpable, one group was treated with 5-HTR7 antagonist SB-269970 (n=6 mice; 3 mg/kg/day) or left untreated (n=6 mice). Tumor volume was measured and plotted. (C) After seven days of the setting of tumor growth, one group was treated with a serotonin transporter blocker (SSRI) sertraline hydrochloride (n=6 mice; 15 mg/kg/week) or left untreated (n=6 mice). Tumor volume was measured and plotted. (D) C57BL/6 mice were given subcutaneously injected MC38 cells. After seven days of tumor growth, one group of mice was treated with different doses of 5-HTR2B antagonist SB-215505 (n=6). Tumor volume was measured and plotted. (E) C57BL/6 mice were given subcutaneously injected MC38 cells. After seven days of the tumor growth, one group of mice was treated with different doses of 5-HTR2B antagonist SB-215505 (n=6), one group treated with 5-HTR2B agonist BW-723C86 (n=6; 4 mg/kg/day). Tumor volume was measured and plotted. […] Tumor growth was measured and plotted. […] Tumour volumes were measured and plotted. […] Tumour volumes were measured and plotted. […]

[6] = system: MC38 cells; experiment: MC38 tumor growth in immuno-compromised NRG mice; type: in vivo; details: 4 mg/kg/day from day 7; not as much as in wild-type mice (FIG. 8B)
Protocol: FIG. 8 depicts that 5-HTR2B antagonism promotes antigen-specific immune response to the tumor: (A) Experimental protocol for SB-215505 treatment in MC38 tumor-bearing NRG mice. In brief, (B) MC38 cells were injected subcutaneously into NRG mice. After seven days of the tumor growth setting in mice, one group of mice was treated with 5-HTR2B antagonist SB-215505 (n=5 mice) or left untreated (n=5 mice). Tumour volumes were measured and plotted. (C) Experimental protocol for adoptive transfer of SB-215505 pre-treated naïve or MC38 tumor primed immune cells in MC38 tumor-bearing NRG mice. In brief: (D) MC38 cells were injected subcutaneously into NRG mice. Those mice were adoptively transferred with naïve (n=4 mice) or MC38 tumor primed immune cells (n=4 mice) or SB-215505 pre-treated naïve (n=4 mice) or SB-215505 pre-treated MC38 tumor primed immune cells (n=4 mice) from the day of tumor inoculation. After the tumor begins to appear, tumor volumes were measured and plotted. […]
MC38 and MC38-cOVA cells were injected subcutaneously into the right flank of male C57BL/6 or NRG mice (0.5×10^6 cells/mouse in 150 μl PBS). […] Tumor volume was measured using a Vernier caliper on each alternate day or every third day as soon as the tumor appears. The volume of the tumor was measured using the formula V=L×W^2/2, where L=length of the tumor (mm) and W=width of the tumor (mm). […]

[7] = 4 mg/kg/day from day 7 after inoculation, vs untreated (FIG. 7A)

In the case of NCCc1c[nH]c2ccc(O)cc12 [serotonin], the “viability of MC38 cells” value [1] is reported as “enhanced the viability of MC38 cells” and the “expression of PD-L1 in the colon cancer cells” value [2] is reported as “did not significantly alter the PD-L1 expression”.
In the case of CN(C)C(=O)N[C@H]1CC[C@H](CCN2CCN(c3cccc(Cl)c3Cl)CC2)CC1 [cariprazine], the MC38 tumor growth ([3]; oral gavage, 5 mg/kg body weight/day (FIG. 7F)) is reported as “significant reduction in MC38 tumor growth”.
Cc1cc2c(cc1Cl)N(C(=O)Nc1cccc3ncccc13)CC2 [SB-215505] was tested, and the MC38 tumor growth [3, 7] was “efficiently control the tumor growth”, the “most efficient dose in reducing MC38 tumor growth” value ([3]; dose-response, doses from 0.5 mg/kg/day to 4 mg/kg/day (FIG. 7D)) was 4 mg/kg/day and the “tumor burden, mice breast cancer model” value [4] was “reduced tumor burden”. The “tumor burden, mice melanoma model” value [5] was “reduced tumor burden” and the “MC38 tumor growth in NRG mice” value [6] was “suppressed to some extent”.
In the case of Cc1nc2sccn2c(=O)c1CCN1CCC(=C(c2ccc(F)cc2)c2ccc(F)cc2)CC1 [Ritanserin], the MC38 tumor growth [3, 7] is reported as “controls tumor growth to some extent” and the MC38 tumor growth ([3]; 4 mg/kg/day from day 7 after inoculation, vs untreated (FIG. 7A), listed as ritanserin) is reported as “did not prevent tumor growth”.
